According to ChEMBL document CHEMBL3137667, “[Drug-induced liver injury; fourteenth updated edition of the bibliographic database of liver injuries and related drugs]” (Gastroenterol Clin Biol, 2004):

Columns and labels:
[1] = human
[2] = human, serum, 4383 h
[3] = human; remark: listed apart in the source
[4] = human; remark: listed apart in the source
[5] = Highest frequency of acute liver toxicity observed during clinical trials, expressed as a percentage. [column '% AIGUE' in source]; conditions: human
[6] = human, serum
[7] = human; remark: listed apart in the source
[8] = human; remark: listed apart in the source
[9] = Proposed mechanism(s) of liver damage. [column 'MEC' in source]; conditions: human
[10] = Highest frequency of moderate liver toxicity observed during clinical trials, expressed as a percentage. [column '% BIOL' in source]; conditions: human
[11] = human; remark: listed apart in the source
[12] = human, serum; remark: listed apart in the source
[13] = human; remark: listed apart in the source
[14] = human; remark: listed apart in the source
[15] = human; remark: listed apart in the source
[16] = Times to onset, minimal and maximal, observed in the indexed observations. [column 'DELAI' in source]; conditions: human
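Wherever Hepatotoxicity (association with vascular disease) is given: count of indexed literature references reporting vascular liver injury in humans, e.g. peliosis hepatitis, hepatic veno-occlusive disease or Budd-Chiari syndrome.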
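Wherever Hepatotoxicity (benign tumour) is given: value is a count of indexed literature references citing a benign tumour confirmed by histopathology.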
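Wherever Hepatotoxicity (choleostasis) is given: human cholestatic liver injury, shown by histopathology or by peak ALT or AST elevation over alkaline phosphatase ratio below 2, value counts indexed literature reports.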
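Wherever Hepatotoxicity (chronic liver disease) is given: chronic liver injury confirmed by histopathology or persistently raised serum aminotransferase activity beyond 6 months, value given as the count of indexed literature references.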
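Wherever Hepatotoxicity (cirrhosis) is given: value is a count of indexed literature references reporting cirrhosis confirmed by histopathology.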
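Wherever Hepatotoxicity (cytolytic) is given: human cytolytic liver injury, shown by histopathology or by a ratio above 5 of peak ALT or AST elevation to alkaline phosphatase elevation, value counts indexed references.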
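Wherever Hepatotoxicity (granulomatous hepatitis) is given: value is a count of indexed literature references reporting granulomatous liver disease confirmed by histopathology.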
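Wherever Hepatotoxicity (malignant tumour) is given: malignant tumour confirmed by histopathology, value gives the count of indexed literature references reporting it.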
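Wherever Hepatotoxicity (severe hepatitis) is given: human clinical data: severe hepatitis, meaning potentially life-threatening liver failure or clinically observed cases, the value counts how many indexed literature references report it.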
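Wherever Hepatotoxicity (steatosis) is given: steatosis confirmed by histopathology, value is the count of indexed references.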

Row | SMILES | Hepatotoxicity (cytolytic) [1] | Hepatotoxicity (chronic liver disease) [2] | Hepatotoxicity (malignant tumour) [3] | Hepatotoxicity (choleostasis) [4] | Hepatotoxicity (acute) [5] [%] | Hepatotoxicity (acute) [6] | Hepatotoxicity (severe hepatitis) [7] | Hepatotoxicity (steatosis) [8] | Hepatotoxicity (mechanism) [9] | Hepatotoxicity (moderate) [10] [%] | Hepatotoxicity (granulomatous hepatitis) [11] | Hepatotoxicity (moderate) [12] | Hepatotoxicity (benign tumour) [13] | Hepatotoxicity (association with vascular disease) [14] | Hepatotoxicity (cirrhosis) [15] | Hepatotoxicity (time to onset) [16]
1 | O=C1c2c(O)ccc(O)c2C(=O)c2c(NCCNCCO)ccc(NCCNCCO)c21 [MITOXANTRONE] | 0 | 0 | 0 | 0 | 42.8 | 4 | 2 | 0 | Dose-dependant | 80 | 0 | 21 | 0 | 0 | 0 | 4 days - 24 days
2 | CN1CCN(CCCN2c3ccccc3Sc3ccc(S(=O)(=O)N(C)C)cc32)CC1 [THIOPROPERAZINE] | 2 | 0 | 0 | 1 | 0 | 2 | 0 | 0 | Allergic | 0 | 0 | 0 | 0 | 0 | 0 | 24 days - > 1 month
3 | COc1cc(/C=C/C(=O)O)ccc1O [FERULATE] | 1 | 1 | 0 | 1 | 0 | 2 | 0 | 0 | Dose-dependant | 0 | 0 | 0 | 0 | 0 | 2 | 2 days - 5 years
4 | O=C1Nc2ccc(Cl)cc2[C@@](C#CC2CC2)(C(F)(F)F)O1 [EFAVIRENZ] | 8 | 0 | 0 | 2 | 10.9 | 8 | 4 | 0 | Allergic | 18.8 | 0 | 2 | 0 | 0 | 0 | 10 days - 4 weeks
5 | CN1C(=O)OC(C)(C)C1=O [TRIMETHADIONE] | 1 | 0 | 0 | 0 | 0 | 3 | 0 | 0 | Allergic | 0 | 0 | 1 | 0 | 0 | 0 | 2 weeks - 1 month
6 | NC(=O)c1ncn([C@@H]2O[C@H](CO)[C@@H](O)[C@H]2O)n1 [RIBAVIRIN] | 1 | 0 | 0 | 1 | 0 | 2 | 1 | 1 | Mitochondrial toxicity | 33 | 0 | 3 | 0 | 0 | 0 | 11 weeks - 6 months
7 | CN(C)[C@@H]1C(O)=C(C(N)=O)C(=O)[C@@]2(O)C(O)=C3C(=O)c4c(O)cccc4[C@@](C)(O)[C@H]3[C@H](O)[C@@H]12 [OXYTETRACYCLINE] | 0 | 0 | 0 | 2 | 0 | 2 | 1 | 4 | Dose-dependant | 60 | 0 | 1 | 0 | 0 | 0 | 5 days - 3 weeks
8 | O=C(O)C1=C(CSc2nnnn2CS(=O)(=O)O)CS[C@@H]2[C@H](NC(=O)[C@H](O)c3ccccc3)C(=O)N12 [CEFONICID] | 0 | 0 | 0 | 0 | 5.9 | 2 | 0 | 0 | Allergic | 29 | 0 | 10 | 0 | 0 | 0 | 4 days - 20 days
9 | Cc1c(N(C)CS(=O)(=O)[O-])c(=O)n(-c2ccccc2)n1C.[Na+] [DIPYRONE SODIUM] | 0 | 0 | 0 | 0 | 0 | 3 | 0 | 0 | Allergic | 0 | 0 | 1 | 0 | 0 | 0 | 2 hours - 18 days
10 | CC(C)[C@@H](CC[C@@H](C)[C@H]1CC[C@H]2[C@@H]3[C@H](O)C[C@H]4C[C@@H](NCCCNCCCCN)CC[C@]4(C)[C@H]3CC[C@]12C)OS(=O)(=O)O [SQUALAMINE] | 2 | 0 | 0 | 1 | 38.5 | 2 | 0 | 0 | Dose-dependant | 0 | 0 | 1 | 0 | 0 | 0 | 2 days - 5 days
